Source: paper PMC11133327, “Discovery of potent antimycobacterial agents targeting lumazine synthase (RibH) of Mycobacterium tuberculosis” (Scientific Reports, 2024)

Experiments:
Format in all cases: binding
lumazine synthase (RibH) [1] = molecular target: T1, lumazine synthase (RibH) (Mycobacterium tuberculosis, UniProt P9WHE9); assay: […]; also riboflavin displacement ([…] at […])
lumazine synthase (RibH) [2] = molecular target: T1, lumazine synthase (RibH); assay: […]; also riboflavin displacement ([…] at […]); remark: listed apart in the source
lumazine synthase (RibH) [3] = molecular target: T1, lumazine synthase (RibH); assay: […]; also riboflavin displacement ([…] at […]); remark: listed apart in the source
lumazine synthase (RibH) [4] = molecular target: T1, lumazine synthase (RibH); assay: biochemical

T1 sequence (P9WHE9 whole entry): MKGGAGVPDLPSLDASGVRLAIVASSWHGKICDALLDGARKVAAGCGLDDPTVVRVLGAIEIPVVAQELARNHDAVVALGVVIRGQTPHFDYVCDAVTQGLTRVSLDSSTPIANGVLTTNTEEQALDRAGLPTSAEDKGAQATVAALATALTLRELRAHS

O=C1NC(=Nc2ccccc2)SC1=Cc1ccc([N+](=O)[O-])o1 [A10, 5-((5-nitrofuran-2-yl)methylene)-2-(phenylimino)thiazolidin-4-one]
Kd (lumazine synthase (RibH) [1]): 69 nM

O=C1NC(=Nc2ccc(Cl)cc2)SC1=Cc1ccc([N+](=O)[O-])o1 [A39, 2-((4-chlorophenyl)imino)-5-((5-nitrofuran-2-yl)methylene)thiazolidin-4-one]
Kd (lumazine synthase (RibH) [2]): 2.3 nM

Cc1ccc(N=C2NC(=O)C(=Cc3ccc([N+](=O)[O-])o3)S2)cc1 [A52, 5-((5-nitrofuran-2-yl)methylene)-2-(p-tolylimino)thiazolidin-4-one]
Kd (lumazine synthase (RibH) [3]): 48 nM

Cc1cc2nc3c(=O)[nH]c(=O)nc-3n(C[C@H](O)[C@H](O)[C@H](O)CO)c2cc1C [riboflavin]
Kd (lumazine synthase (RibH) [4]): 86 nM
